Results: ChEMBL document CHEMBL1201862, “PubChem BioAssay data set” (2004)
The source made the active and inactive calls.

Experiments:
[1] = target: Major prion protein (Homo sapiens, UniProt P04156); format: functional, cell-based
[2] = cells
[3] = target: Endoplasmic reticulum aminopeptidase 1 (Homo sapiens, UniProt Q9NZ08); test: inhibition of human ERAP1 enzyme activity – biochemical, cherry-pick, set 2, plate reader, dose response (AID 743314)
[4] = target: FAD-linked sulfhydryl oxidase ALR (Homo sapiens, UniProt P55789); test: ALR-catalysed DTT oxidation blockers – biochemical, H2O2 detection, luminescence, cherry-pick, dose response (AID 493248)
[5] = target: fMet-Leu-Phe receptor (Homo sapiens, UniProt P21462); test: formyl peptide receptor binders – dose response (AID 519); format: functional
[6] = tested on: Vero; test: viability loss in Vero cells – cell-based, plate reader, cherry-pick samples, cytotoxicity control, dose response (AID 687020); format: functional; conditions: Chlorocebus sabaeus
[7] = target: T1, Aminopeptidase N (Plasmodium falciparum FcB1/Columbia, UniProt O96935); test: malaria alanyl aminopeptidase activity blockers – biochemical, fluorogenic H-Leu-NHMec substrate, 1536-well (AID 1445); set-up: species or system Plasmodium falciparum 3D7, 3D7
T1 sequence (O96935 whole entry): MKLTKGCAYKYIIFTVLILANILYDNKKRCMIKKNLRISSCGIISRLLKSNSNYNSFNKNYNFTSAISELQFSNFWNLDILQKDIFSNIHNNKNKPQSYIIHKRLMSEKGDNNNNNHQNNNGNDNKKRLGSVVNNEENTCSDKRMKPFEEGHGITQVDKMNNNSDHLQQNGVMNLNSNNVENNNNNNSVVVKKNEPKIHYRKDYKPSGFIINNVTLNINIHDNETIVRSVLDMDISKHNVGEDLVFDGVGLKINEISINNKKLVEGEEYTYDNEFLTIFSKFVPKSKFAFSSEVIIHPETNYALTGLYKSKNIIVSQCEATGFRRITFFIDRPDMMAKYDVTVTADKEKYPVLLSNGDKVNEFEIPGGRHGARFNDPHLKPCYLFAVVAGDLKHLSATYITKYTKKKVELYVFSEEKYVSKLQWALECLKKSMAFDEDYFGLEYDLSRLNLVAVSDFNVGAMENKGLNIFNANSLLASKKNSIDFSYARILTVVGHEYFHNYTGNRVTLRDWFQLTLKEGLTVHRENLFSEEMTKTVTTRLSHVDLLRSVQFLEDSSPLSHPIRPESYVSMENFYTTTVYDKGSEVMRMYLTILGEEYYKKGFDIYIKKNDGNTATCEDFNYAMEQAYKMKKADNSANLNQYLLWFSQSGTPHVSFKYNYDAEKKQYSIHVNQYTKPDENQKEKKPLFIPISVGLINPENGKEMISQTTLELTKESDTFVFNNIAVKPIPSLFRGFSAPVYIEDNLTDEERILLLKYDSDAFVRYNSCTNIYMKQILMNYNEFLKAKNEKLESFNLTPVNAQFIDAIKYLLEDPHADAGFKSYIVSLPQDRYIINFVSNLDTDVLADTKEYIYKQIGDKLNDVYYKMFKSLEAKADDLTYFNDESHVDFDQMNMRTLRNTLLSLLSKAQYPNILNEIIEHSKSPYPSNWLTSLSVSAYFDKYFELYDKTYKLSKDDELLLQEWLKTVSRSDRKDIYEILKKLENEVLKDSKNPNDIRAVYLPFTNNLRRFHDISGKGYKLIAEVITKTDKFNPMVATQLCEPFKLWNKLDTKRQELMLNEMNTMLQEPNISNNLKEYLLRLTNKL

[8] = target: Long-chain-fatty-acid--AMP ligase FadD28 (Mycobacterium tuberculosis, UniProt P9WQ59); test: Fluorescence polarization aasay to screen for inhibitors that compete for the binding of FadD28 to a bisubstrate Measured in Biochemical System Using Plate Reader - 2147-01_Inhibitor_Dose_CherryPick_Activity.; format: functional, Mycobacterium tuberculosis H37Rv
[9] = viability loss in HEK293 kidney cells – cell-based, cherry-picks, set 5, cytotoxicity control, dose response (AID 1053117); format: functional
[10] = target: T2, Protein skinhead-1 (Caenorhabditis elegans, UniProt P34707); format: functional
T2 sequence (P34707 whole entry): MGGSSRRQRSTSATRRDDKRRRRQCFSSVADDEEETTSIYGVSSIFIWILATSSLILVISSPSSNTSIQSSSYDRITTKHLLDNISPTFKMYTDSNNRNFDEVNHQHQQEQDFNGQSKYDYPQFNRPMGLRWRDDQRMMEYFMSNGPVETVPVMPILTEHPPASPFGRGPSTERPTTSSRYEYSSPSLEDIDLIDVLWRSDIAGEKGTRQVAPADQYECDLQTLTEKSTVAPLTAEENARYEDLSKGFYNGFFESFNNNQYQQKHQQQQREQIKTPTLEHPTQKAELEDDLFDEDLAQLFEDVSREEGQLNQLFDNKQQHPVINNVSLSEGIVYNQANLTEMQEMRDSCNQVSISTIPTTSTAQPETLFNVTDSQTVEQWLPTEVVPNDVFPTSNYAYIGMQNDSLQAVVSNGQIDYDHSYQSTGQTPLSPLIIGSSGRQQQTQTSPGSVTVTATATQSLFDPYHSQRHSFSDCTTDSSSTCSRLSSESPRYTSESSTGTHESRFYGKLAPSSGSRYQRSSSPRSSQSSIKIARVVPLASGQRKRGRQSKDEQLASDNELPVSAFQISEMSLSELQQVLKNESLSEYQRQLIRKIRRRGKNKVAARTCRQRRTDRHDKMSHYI

[11] = target: Botulinum neurotoxin type F (Clostridium botulinum, UniProt P30996); test: High-throughput multiplex microsphere dose response for inhibitors of toxin protease, specifically Botulinum neurotoxin light chain F protease, compounds from Cherry Pick 02.; format: functional; conditions: read-out: EC50_MICROM
[12] = target: Nuclear receptor subfamily 0 group B member 1 (Homo sapiens, UniProt P51843); format: functional, cell-based;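 note: HEK293T cells transfected with SF-1 and DAX-1 plus StAR promoter luciferase reporter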
[13] = cells; format: functional, cell-based
[14] = target: 5-hydroxytryptamine receptor 2A (Mus musculus, UniProt P35363); format: functional, cell-based;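 note: CHO-K1 cells with tagged receptor and beta-arrestin; agonist potency measured as compound-induced activation of the receptor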
[15] = target: Mu-type opioid receptor (Homo sapiens, UniProt P35372); format: functional, cell-based;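 note: U2OS cells with beta-arrestin recruitment to OPRM1 by beta-gal complementation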
[16] = T. cruzi growth inhibition in host cells, dose response, cell-based, plate reader, dry powder, set 2 (AID 652275); format: functional

For `CCOC(=O)C(C)Sc1nc(-c2ccccc2)nc2ccccc12` (stereo unspecified), the IC50 [1] was 1.83 µM (active) and the IC50 [2] was > 138 µM (inactive).

With `CCN1CCN(Cc2c(O)ccc3c(C)cc(=O)oc23)CC1` the AC50 [3] was 10 µM (active).

With `Cc1nnc(SCc2cnc(-c3ccccc3)o2)nc1O` the AC50 [4] was 0.547 µM (active) and the Ki [5] was > 66.7 µM (inactive).

In the case of `CC(=O)Nc1cccc(OCCCNC(=O)c2ccc(C(C)(C)C)cc2)c1`, the AC50 [6] was 35.3 µM (active).

For `CCOc1ccc(-n2c(=S)sc3c(O)nc(SCC(=O)N4CCC(C)CC4)nc32)cc1`, the IC50 [7] was 30 µM (active) and the AC50 [8] was 99 µM (active).

In the case of `O=S(=O)(c1cccc(F)c1)N1CC[C@@H]2[C@H]1c1cc(-c3cccc(F)c3)ccc1N[C@@H]2CO`, the AC50 [9] was 33.9 µM (active).

In the case of `CCC(=O)NCCn1c(C)cc2ccccc21`, the IC50 [10] was > 100 µM (inactive) and the EC50 [11] was > 20 µM (inactive).

For `CCc1ccc(NC(=O)N2CCc3ccccc3C2)cc1`, the IC50 [12] was > 67.6 µM (inactive) and the IC50 [13] was > 67.6 µM (inactive).

With `CCCCCc1cc(=O)oc2c(C(CCN3CCN(c4ccccc4)CC3)c3ccc4c(c3)OCO4)c(OC)cc(OC)c12` (stereo unspecified) the EC50 [14] was 76.1 µM (inactive) and the EC50 [15] was 92.5 µM (inactive).

For `CC(C)(C)[S@@+]([O-])N1Cc2cc(C(=O)NCc3ccc4c(c3)OCO4)nc(-c3cccc(-c4cccnc4)c3)c2[C@H]1CCO`, the AC50 [16] was 1.67 µM (active).
